Values of other authors as cited in patent US4535081A, “Antiallergic and antiulcer 1-oxo-1H-thiazolo[3,2-a]pyrimidine-2-carboxamides and intermediates therefor” (Pfizer Inc., priority 1983, dated 1985).

What was measured:
gastric ulcers = conditions: literature; cited from earlier work
gastric acid secretion = conditions: literature; cited from earlier work

SMILES | effect on gastric ulcers (gastric ulcers) | effect on ulcers / gastric acid secretion (gastric acid secretion)
CC1(C)[C@@H](OC(=O)CCC(=O)O)CC[C@]2(C)[C@H]3C(=O)C=C4[C@@H]5C[C@@](C)(C(=O)O)CC[C@]5(C)CC[C@@]4(C)[C@]3(C)CC[C@@H]12 [carbenoxolone sodium] | prevent formation of and to accelerate healing of gastric ulcers in animals, including humans | 
CN/C(=N/CCSCc1nc[nH]c1C)NC#N [cimetidine] |  | alleviates ulcers by reducing gastric acid secretion
